US7128900B2, “Light-protection agents” (Merck Patent GmbH, priority 2002, dated 2006)
Values joined by “and” are separate entries in the source; they are usually repeats but may differ in a detail not shown here. Equal entries are not always repeated.

Experiment: UV absorption spectrum (UV-VIS) in 2-propanol
Type: physicochemical
Conditions: for UV absorption maximum λ / ε at the UV absorption maximum: in 2-propanol; for UV-vis λmax: several maxima listed
Procedure: The UV-VIS spectrum was measured on a Varian Cary 100 biospectrophotometer fitted with a heated cell holder (concentration=0.001 g/100 ml of 2-propanol; cell thickness d=1 cm; wavelength range: 200 to 800 nm).
The UV-VIS spectrum was measured on a Varian Cary 100 biospectrophotometer fitted with a heated cell holder (concentration=0.001 g/ 100 ml of 2-propanol; cell thickness d=1 cm; wavelength range: 200 to 800 nm).

SMILES	UV absorption maximum λ	ε at the UV absorption maximum	UV-vis λmax (2-propanol, 1 mg/100 ml)	further results
COc1ccc(-c2cc(=O)c3cc(O)ccc3o2)cc1 [Example 1, 4′-methoxy-6-hydroxyflavone]	322 nm	24790	–	–
O=c1cc(-c2ccc(O)cc2)oc2cc(O)ccc12 [Example 3, 4′,7-dihydroxyflavone]	329 nm	27960	–	–
COc1ccc(-c2cc(=O)c3ccc(OC4O[C@H](CO)[C@@H](O)[C@H](O)[C@H]4O)cc3o2)cc1 (stereo partly drawn) [Example 4, 4′-methoxy-7-β-glucosidylflavone]	318 nm	37185	–	–
COc1cc(-c2cc(=O)c3cc(O)c(O)cc3o2)cc(OC)c1OC [Example 5, 2-(3′,4′,5′-trimethoxyphenyl)-6,7-dihydroxy-4-oxo-4H-1-benzopyran]	–	–	281 nm and 324 nm	UV-vis (e) at λmax 281 nm (2-propanol, 1 mg/100 ml, 281 nm): 8267; UV-vis (e) at λmax 324 nm (2-propanol, 1 mg/100 ml, 324 nm): 16036
O=c1cc(-c2ccc(O)cc2)oc2ccc(O)cc12 [Example 6, 2-(4′-hydroxyphenyl)-6-hydroxy-4-oxo-4H-1-benzopyran]	–	–	228 nm and 277 nm and 328 nm	UV-vis (e) at λmax 228 nm (2-propanol, 1 mg/100 ml, 228 nm): 23068; UV-vis (e) at λmax 277 nm (2-propanol, 1 mg/100 ml, 277 nm): 14805; UV-vis (e) at λmax 328 nm (2-propanol, 1 mg/100 ml, 328 nm): 30971
